Values quoted from earlier work, collected in patent US20070161683A1, “Certain chemical entities, compositions, and methods” (priority 2005, published 2007).

Tested on: A549 cells
Settings: concentration that decreases the rate of cell growth by fifty percent

GI50	Structure (SMILES)
1 µM	O=c1[nH]cc(F)c(=O)[nH]1 [5-fluorouracil]
0.063 µM	COc1cccc2c1C(=O)c1c(O)c3c(c(O)c1C2=O)C[C@@](O)(C(=O)CO)C[C@@H]3O[C@H]1C[C@H](N)[C@H](O)[C@H](C)O1 [doxorubicin]
500 µM	NC(=O)NO [hydroxyurea]
0.004 µM	CC(=O)O[C@H]1C(=O)[C@@]2(C)[C@H]([C@H](OC(=O)c3ccccc3)[C@]3(O)C[C@H](OC(=O)[C@H](O)[C@@H](NC(=O)c4ccccc4)c4ccccc4)C(C)=C1C3(C)C)[C@]1(OC(C)=O)CO[C@@H]1C[C@@H]2O [paclitaxel]
